Measured values published in patent US11365202B2, “Antimalarial compounds, process for preparation and their use for drug resistant malaria” (Council of Scientific and Industrial Research, priority 2018, dated 2022).
Where two headings read alike, the source gives them in different places.

Experiments:
[1] = system: P. falciparum 7G8; experiment: P. falciparum growth inhibition assay, 7G8 strain; assay type: cell-based; settings: Plasmodium falciparum
Protocol: (§1) P. falciparum strain 3D7, Dd2 and 7G8 were cultured in RPMI media (Invitrogen) supplemented with 0.5% albumax and 4% haematocrit using a protocol described previously [Trager and Jensen (Science,1976; 193:673-675)]. Cultures were synchronized by repeated sorbitol treatment following Lambros and Vanderberg (J Parasitol; 1979; 65:418-420). Each growth inhibition assay was performed in triplicate and the experiment was repeated twice. Each well contained 0.5 ml of complete media [RPMI (invitrogen) with 0.5% albumax], 4% haematocrit and the parasitaemia adjusted to ˜1%; the compound added to the parasite cultures to desired final concentrations (0-100 µM) and same amount of solvent (DMSO) was added to the control wells. The cultures were allowed to grow further for 48 h. Parasite growth was assessed by DNA fluorescent dye-binding assay using SYBR green (Sigma) following Smilkstein et al (Antimicrob Agents Chemother.; 2004, 48, 1803-1806). • f) In Vitro Toxicity Assay on CHO Cells

[2] = system: P. falciparum Dd2; experiment: P. falciparum growth inhibition assay, Dd2 strain; assay type: cell-based; settings: Plasmodium falciparum
Protocol: as §1

[3] = system: A549 human cells; experiment: In vitro toxicity on mammalian cell culture; assay type: cell-based; settings: for EC50: Homo sapiens, A549, in vitro toxicity
[4] = system: P. falciparum 3D7; experiment: P. falciparum growth inhibition assay, 3D7 strain; assay type: cell-based; settings: Plasmodium falciparum, read-out: EC50 on P. falciparum 3D7
Protocol: as §1

[5] = system: P. berghei; experiment: In vivo parasiticidal assay with P. berghei mice malaria model; settings: for protection in treated group of mice: 12.5 mg/kg of body weight; for Complete Protection - Mice with complete parasite clearance / Survival after treatment: 4 doses of 12.5 mg/Kg of body weight, infected BALB/c mice
Protocol: Five groups of female BALB/c mice, 6-8 weeks of age (four mice/group) were used for testing the in vivo parsiticidal and protective efficacy of different drug treatments. Mice were injected IP with 1×10^6 P. berghei infected erythrocytes. The drug treatment was initiated 5 days after inducing parasitemia; mice in a group were given 4 doses of a compound at 12.5 mg/Kg of body weight. Control mice were given solvent alone. The parasitemia was assessed everyday in thin smears of Giemsa stained RBCs from tail blood of each mouse, by counting parasitized erythrocytes in more than 10,000 erythrocytes. Time of death of the mice in each group was also monitored.

[6] = 7G8, read-out: EC50 on P. falciparum 7G8
[7] = DD2, read-out: EC50 on P. falciparum Dd2

SMILES | EC50 [1, 6] [nM] | EC50 [2, 7] [nM] | EC50 [3] [nM] | EC50 ([4]; 3D7, 48 h) [nM] | in vitro toxicity on A549 human cells (in words) [3] | protection in treated group of mice [5] [%] | Complete Protection - Mice with complete parasite clearance [5] | Survival after treatment [5] [days] | EC50 ([1]; 7G8, Chloroquine and Pyrimethamine resistant strain, in vitro culture, read-out: EC50 on P. falciparum 7G8) [nM] | EC50 ([2]; DD2, Chloroquine, Pyrimethamine and Mefloquine resistant strain, in vitro culture, read-out: EC50 on P. falciparum Dd2) [nM] | EC50 ([4]; 3D7, chloroquine-sensitive strain, in vitro culture, 48 h) [nM]
CCOP(=O)(/C=C/C(NC(=O)[C@H](Cc1ccccc1)NC(=O)[C@H](CO[C@H]1O[C@@H]2O[C@@]3(C)CC[C@H]4[C@H](C)CC[C@@H]([C@H]1C)[C@@]24OO3)NC(=O)OCc1ccccc1)c1ccccc1)OCC (mixture of isomers) [Compound 2, Benzyl ((2S)-1-(((2S)-1-(((E)-3-(diethoxyphosphoryl)-1-phenylallyl)amino)-1-oxo-3-phenylpropan-2-yl)amino)-1-oxo-3-(((3R,5aS,6R,8aS,9R,10S,12R,12 aR)-3,6,9-trimethyldeca hydro-12H-3,12-epoxy[1,2]dioxepino[4,3-i]isochromen-10-yl)oxy)propan-2-yl)carbamate] | 0.47 | 1.9 | 14600 ± 175 | 2.7 | – | – | – | – | – | – | –
CCOP(=O)(/C=C/C(NC(=O)[C@H](CC(C)C)NC(=O)[C@H](CO[C@H]1O[C@@H]2OC3(C)CC[C@H]4[C@H](C)CC[C@@H]([C@H]1C)[C@@]24OO3)NC(=O)OCc1ccccc1)c1ccccc1)OCC (stereo in doubt) [Compound 3, Benzyl ((2S)-1-(((2S)-1-(((E)-3-(diethoxyphosphoryl)-1-phenylallyl)amino)-4-methyl-1-oxopentan-2-yl)amino)-1-oxo-3-(((3R,5aS,6R,8aS,9R,10S,12R,12aR)-3,6,9-trimethyldeca hydro-12H-3,12-epoxy[1,2]dioxepino[4,3-i]isochromen-10-yl)oxy)propan-2-yl)carbamate] | 0.23 | 3.5 | 3820 ± 161 | 3.3 | non-toxic | 100 | 100% of treated mice | >60 | – | – | –
CCOP(=O)(/C=C/C(NC(=O)[C@H](CC(C)C)NC(=O)[C@@H]1C[C@@H](O[C@H]2O[C@@H]3OC4(C)CC[C@H]5[C@H](C)CC[C@@H]([C@H]2C)[C@@]35OO4)CN1C(=O)OCc1ccccc1)c1ccccc1)OCC (stereo in doubt) [Compound 5, Benzyl (2S,4R)-2-(((2S)-1-(((E)-3-(diethoxyphosphoryl)-1-phenylallyl)amino)-4-methyl-1-oxopentan-2-yl)carbamoyl)-4-(((3R,5aS,6R,8aS,9R,10S,12R,12aR)-3,6,9-trimethyldeca hydro-12H-3,12-epoxy[1,2]dioxepino[4,3-i]isochromen-10-yl)oxy)pyrrolidine-1-carboxylate] | 1.2 | 5.5 | 1280 ± 156 | 2.57 | non-toxic | 100 | 100% of treated mice | >60 | – | – | –
C[C@@H]1CC[C@H]2[C@@H](C)C(=O)O[C@@H]3O[C@@]4(C)CC[C@@H]1[C@]32OO4 [Artemisinin, reference compound] | – | – | – | – | – | – | 0% of treated mice | 15 to 25 | ~18 | ~15 | ~27
